Assay results from the supplement of paper PMC10307832.

Legend:
Test in all cases: relative viability (nuclei count vs DMSO), 5 days (fraction); higher = more cells survive
Apatinib + Pemetrexed = compound: N#CC1(c2ccc(NC(=O)c3cccnc3NCc3ccncc3)cc2)CCCC1 [Apatinib] + Nc1nc2[nH]cc(CCc3ccc(C(=O)N[C@@H](CCC(=O)O)C(=O)O)cc3)c2c(=O)[nH]1 [Pemetrexed] (partner 0.2 µM)
Outline: (§1)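 Lung cancer cell lines were seeded in 1536-well plates and dosed by pin tool the next day, with either a single drug or a fixed anchor-drug dose combined with five library-drug doses (not always all listed) spaced in √10 steps. Five days later, one step fixed the cells and stained their nuclei (final 0.05% Triton X-100, 1% formaldehyde, 1 ug/ml Hoechst), and nuclei were counted on 4× images. Relative viability is the nuclei count in treated wells divided by the count in vehicle wells, and each value is the median of duplicate plates.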

Metformin + Palbociclib = compound: CN(C)C(=N)NC(=N)N [Metformin] + CC(=O)c1c(C)c2cnc(Nc3ccc(N4CCNCC4)cn3)nc2n(C2CCCC2)c1=O [Palbociclib] (partner 0.5 µM)
Outline: as §1

Apatinib + Pictilisib = compound: N#CC1(c2ccc(NC(=O)c3cccnc3NCc3ccncc3)cc2)CCCC1 [Apatinib] + CS(=O)(=O)N1CCN(Cc2cc3nc(-c4cccc5[nH]ncc45)nc(N4CCOCC4)c3s2)CC1 [Pictilisib] (partner 1 µM)
Outline: as §1

Metformin + Alpelisib = compound: CN(C)C(=N)NC(=N)N [Metformin] + Cc1nc(NC(=O)N2CCC[C@H]2C(N)=O)sc1-c1ccnc(C(C)(C)C(F)(F)F)c1 [Alpelisib] (partner 2 µM)
Outline: as §1

Row | Cell Line | relative viability (Apatinib + Pemetrexed; first compound 0.08 µM) | relative viability (Apatinib + Pemetrexed; first compound 0.253 µM) | relative viability (Apatinib + Pemetrexed; first compound 0.8 µM) | relative viability (Apatinib + Pemetrexed; first compound 2.53 µM) | relative viability (Apatinib + Pemetrexed; first compound 8 µM) | relative viability (Metformin + Palbociclib; first compound 10 µM) | relative viability (Metformin + Palbociclib; first compound 31.62 µM) | relative viability (Metformin + Palbociclib; first compound 100 µM) | relative viability (Metformin + Palbociclib; first compound 316.23 µM) | relative viability (Metformin + Palbociclib; first compound 1000 µM) | relative viability (Apatinib + Pictilisib; first compound 0.08 µM) | relative viability (Apatinib + Pictilisib; first compound 0.253 µM) | relative viability (Apatinib + Pictilisib; first compound 0.8 µM) | relative viability (Apatinib + Pictilisib; first compound 2.53 µM) | relative viability (Apatinib + Pictilisib; first compound 8 µM) | relative viability (Metformin + Alpelisib; first compound 10 µM) | relative viability (Metformin + Alpelisib; first compound 31.62 µM) | relative viability (Metformin + Alpelisib; first compound 100 µM) | relative viability (Metformin + Alpelisib; first compound 316.23 µM) | relative viability (Metformin + Alpelisib; first compound 1000 µM)
1 | SK-MES-1 | 0.976 | 0.915 | 0.937 | 0.757 | 0.568 | 0.248 | 0.205 | 0.266 | 0.204 | 0.232 | 0.421 | 0.3 | 0.326 | 0.37 | 0.32 | 0.814 | 0.802 | 0.732 | 0.822 | 0.909
2 | NCI-H2170 | 0.288 | 0.275 | 0.262 | 0.224 | 0.251 | 0.334 | 0.389 | 0.386 | 0.354 | 0.391 | 0.329 | 0.301 | 0.304 | 0.306 | 0.315 | 0.748 | 0.792 | 0.819 | 0.806 | 0.805
3 | NCI-H1648 | 0.681 | 0.613 | 0.706 | 0.548 | 0.691 |  | 0.299 | 0.296 | 0.294 | 0.294 |  |  |  |  |  |  |  |  |  | 
4 | NCI-H1915 | 0.503 | 0.493 | 0.512 | 0.408 | 0.392 |  | 0.406 | 0.515 | 0.462 | 0.463 | 1.12 | 0.91 | 0.943 | 0.878 | 0.752 |  | 1.14 | 1.09 | 1.04 | 1.11
5 | HCC-366 | 0.192 | 0.159 | 0.129 | 0.121 | 0.0888 | 0.342 | 0.376 | 0.309 | 0.31 | 0.334 | 0.22 | 0.184 | 0.183 | 0.129 | 0.111 | 0.43 | 0.545 | 0.472 | 0.452 | 0.535
6 | HOP-62 | 0.333 | 0.31 | 0.289 | 0.244 | 0.16 | 0.372 | 0.405 | 0.358 | 0.387 | 0.374 | 0.85 |  | 0.816 | 0.758 | 0.466 | 0.828 | 0.77 | 0.777 | 0.928 | 0.934
7 | RERF-LC-KJ | 0.493 | 0.466 | 0.381 | 0.451 | 0.327 | 0.907 | 1.04 | 0.896 | 0.823 | 0.993 | 0.591 | 0.701 | 0.438 | 0.469 | 0.462 | 0.702 | 0.746 | 0.788 | 0.619 | 0.735
8 | NCI-H2347 | 0.477 | 0.404 | 0.449 | 0.409 | 0.409 | 0.443 | 0.453 | 0.404 | 0.382 | 0.408 | 0.51 | 0.673 | 0.748 | 0.552 | 0.596 | 0.771 | 0.968 | 1.09 | 0.961 | 1.01
9 | PC-14 | 0.142 | 0.133 | 0.124 | 0.0984 | 0.0405 | 0.533 | 0.586 | 0.547 | 0.461 | 0.539 | 0.708 | 0.837 | 0.39 | 0.547 | 0.55 | 0.829 | 0.886 | 0.873 | 0.975 | 0.893
10 | IA-LM |  |  |  |  |  |  |  |  |  |  | 0.384 | 0.266 | 0.363 | 0.325 | 0.287 |  | 1.11 | 0.906 | 0.882 | 0.88
11 | NCI-H727 |  |  |  |  |  | 0.672 | 0.78 | 0.818 |  | 0.618 | 0.328 | 0.306 | 0.358 | 0.364 | 0.367 | 0.657 | 0.749 | 0.469 | 0.647 | 0.533
12 | NCI-H1975 | 0.296 | 0.299 | 0.271 | 0.282 | 0.203 | 0.438 | 0.682 | 0.584 | 0.591 | 0.644 | 0.305 | 0.335 | 0.304 | 0.28 | 0.322 | 0.766 | 0.839 | 0.862 | 0.707 | 0.861
13 | NCI-H2085 | 0.949 | 0.777 | 0.876 | 0.823 | 0.782 | 0.475 | 0.447 | 0.469 | 0.435 | 0.453 | 0.464 | 0.457 | 0.475 | 0.449 | 0.499 | 0.956 | 0.955 | 0.944 | 0.903 | 0.985
14 | Calu-6 |  |  |  |  |  |  |  |  |  |  | 0.954 | 0.951 | 0.813 | 0.864 | 0.602 | 0.889 | 0.84 | 0.836 | 0.73 | 0.879
15 | LC-2-ad | 0.248 | 0.299 | 0.259 | 0.267 | 0.233 |  | 0.341 | 0.313 | 0.27 | 0.347 | 0.653 | 0.47 | 0.39 | 0.353 | 0.229 |  | 0.812 | 0.671 | 0.69 | 0.651
16 | SW 900 | 0.486 | 0.467 | 0.427 | 0.379 | 0.321 | 0.542 | 0.536 |  | 0.497 | 0.578 |  |  |  |  |  |  |  |  |  | 
17 | HCC-827 | 0.254 | 0.25 | 0.247 | 0.231 | 0.258 | 0.452 | 0.501 | 0.481 | 0.469 | 0.615 | 1.04 | 0.867 | 0.806 | 0.777 | 1.01 |  | 0.822 | 0.896 | 0.837 | 0.782
18 | EMC-BAC-2 | 0.452 | 0.465 | 0.422 | 0.406 | 0.401 | 0.499 | 0.547 | 0.502 | 0.496 | 0.423 | 0.561 | 0.593 | 0.572 | 0.516 | 0.527 | 0.612 | 0.704 | 0.675 | 0.639 | 0.674
19 | NCI-H322M | 0.605 | 0.633 | 0.623 | 0.593 | 0.54 | 0.54 | 0.495 | 0.512 | 0.551 | 0.488 | 0.513 | 0.488 | 0.523 | 0.627 | 0.528 | 0.83 | 0.901 | 0.845 | 0.787 | 0.779
